Patent US5814488A (priority 1993, dated 1998)

How the values were obtained:
Escherichia coli = test: Comparison of MIC and MBC (Tables 5 and 6); type: cell-based
Text: (§1) […]. […] […]

S. aureus = test: Comparison of MIC and MBC (Tables 5 and 6); type: cell-based; details: S. aureus, 31 strains
Text: as §1

Klebsiella pneumoniae = test: Comparison of MIC and MBC (Tables 5 and 6); type: cell-based
Text: as §1

Pseudomonas sp. = test: Comparison of MIC and MBC (Tables 5 and 6); type: cell-based; details: Pseudomonas sp.
Text: as §1

Shigella = test: Comparison of MIC and MBC (Tables 5 and 6); type: cell-based
Text: as §1

[1] = clinical use; cited from earlier work
[2] = Ototoxicity to guinea pig: cochleatoxicity
[3] = Nephrotoxicity to rat after i.m. administration; details: gentamicin at 150 MKD and 100 MKD from seventh day
[4] = Table 5, 20 strains, unit assumed
[5] = Table 6, 20 strains, in µg/mL (unit assumed)
[6] = Table 6, 20 strains, unit assumed
[7] = Table 5, number 2, unit assumed
[8] = Table 5, 10 strains, unit assumed

## Gentamicin
Escherichia coli; [4]
  MBC50: 0.5 µg/mL
  MBC90: 1 µg/mL
  MIC50: 0.125 µg/mL
  MIC90: 0.25 µg/mL
Escherichia coli; [5]
  MBC range: 0.125-8
Escherichia coli; [6]
  MBC90: 1 µg/mL
S. aureus; Table 5, unit assumed
  MBC50: 0.5 µg/mL
  MBC90: 2 µg/mL
  MIC50: 0.125 µg/mL
  MIC90: 0.5 µg/mL
S. aureus; Table 6, in µg/mL (unit assumed)
  MBC range: 0.062
S. aureus; Table 6, unit assumed
  MBC90: 2 µg/mL
Klebsiella pneumoniae; [4]
  MBC50: 0.25 µg/mL
  MBC90: 1 µg/mL
  MIC50: 0.125 µg/mL
  MIC90: 0.25 µg/mL
Klebsiella pneumoniae; [5]
  MBC range: 0.062-2
Klebsiella pneumoniae; [6]
  MBC90: 1 µg/mL
Pseudomonas sp.; [7]
  MBC50: 2 µg/mL
  MBC90: 8 µg/mL
  MIC50: 2 µg/mL
  MIC90: 4 µg/mL
Pseudomonas sp.; [5]
  MBC range: 0.5-16
Pseudomonas sp.; [6]
  MBC90: 8 µg/mL
Shigella; [8]
  MBC50: 0.25 µg/mL
  MBC90: 1 µg/mL
  MIC90: 0.25 µg/mL
Shigella; Table 6, 10 strains, in µg/mL (unit assumed)
  MBC range: 0.125-1
Shigella; Table 6, 10 strains, unit assumed
  MBC90: 1 µg/mL
[1]
  side-effects: side-effects of ototoxicity and nephrotoxicity
[2]; high dosage
  hair cell morphology: large number of necrotized hair cell, even stand cell and nerve cell were observed
[2]; high dosages
  auditory function: nearly all the auditory function of the animals were lost
[2]; low and middle dosages
  hair cell morphology: scattered necrotized hair cell and scar formation were observed
[2]; middle dosages
  ABR threshold: increases of ABR threshold were observed
[3]
  dead animals: gradually increased
